Laboratory results from patent publication US8324345B2, “HLA-binding peptide, precursor thereof, DNA fragment and recombinant vector encoding the same” (priority 2006, dated 2012).
No end group written: not given here.

biological target: HLA-A2 molecule (the product of HLA-A*0201 gene) (Homo sapiens, UniProt P04439, D140Y/D185E/D98H/E176V/E277Q/G131W/G231S/I119V/I121R/I166T/I218V/L300P/L318F/N151K/N90K/P208A/P217A/Q86G/Q94H/R138H/R169H/T345S); assay: Binding experiment of the peptides to an HLA-A0201 molecule (JY cells, flow cytometry); conditions: not given
Description: After neutralization, a reassemble experiment was performed.
The above JY cells and purified β 2 m were added to a serial dilution of the peptide whose binding affinity was to be measured. Then, the mixture was incubated on ice for 4 hours.

| Sequence | Kd |
| --- | --- |
| ALHQVFGAI [compound 38] | 170 nM |
| ELPETLETL [compound 40] | 474 nM |
| FLIDGPETA [compound 35] | 883 nM |
| FQPESPSKL [compound 36] | 487 nM |
| ILIRTGLLV [compound 33] | 298 nM |
| IVLEHGSCV [compound 27] | 1830 nM |
| LLFKTENGV [compound 28] | 33.5 nM |
| NLVRLQSGV [compound 30] | 20100 nM |
| PLNEAIMAV [compound 29] | 320 nM |
| SLRPQPTEL [compound 34] | 8910 nM |
| YMPSVIEKM [compound 39] | 266 nM |

test system: human HLA-A type molecule; assay: Binding experiments, summary statement for HLA-A type molecules; conditions: summary of the binding experiments
Description: The peptides' binding affinity to an HLA-A24 molecule (the product of HLA-A*2402 gene) was measured by using C1R-A24 cells that express the HLA-A*2402 gene (produced by and provided with permission of Professor Masafumi Takiguchi, Kumamoto University).

| Sequence | binding affinity to a human HLA-A type molecule (in words) |
| --- | --- |
| ALVAFLRFL [SEQ ID NO 21] | experimentally confirmed to have binding affinity |

biological target: HLA-A2 molecule (the product of HLA-A*0206 gene) (Homo sapiens, UniProt P04439, D140Y/D185E/D98H/E176V/E277Q/F33Y/G131W/G231S/I119V/I121R/I166T/I218V/L300P/L318F/N151K/N90K/P208A/P217A/Q86G/Q94H/R138H/R169H/T345S); assay: cell-based; conditions: not given

| Sequence | Kd |
| --- | --- |
| ALVAFLRFL [SEQ ID NO 21] | 1080 nM |
| HVLGRLITV [compound 45] | 557 nM |
| IVLEHGSCV [compound 46] | 952 nM |
| LALLAAFKV [compound 43] | 341 nM |
| LVISGLFPV [compound 41] | 245 nM |
| QILEENVEV [compound 50] | 2480 nM |
| SVIEKMEAL [compound 48] | 422 nM |
| YVVIAILTV [compound 47] | 1380 nM |
